Assay results: EP0436598B1, “CELL SORTING TECHNIQUE AND APPLICATIONS THEREOF” (CETUS ONCOLOGY CORPORATION, priority 1988, dated 1990)

Legend:
[1] = system: 520C9 cells; assay: MTT cell growth and viability assay after fluorescent dye labeling; format: cell-based, murine; conditions: labeled 20 minutes with hydroethidine 10 µg/ml at room temperature, washed, cultured three days in dye free medium; Figure 1
Source text: (§1) The effect of fluorescent dyes on cell viability can be measured using techniques well known to those skilled in the art. A most useful technique is described by Mosmann, T., J. of Immunol. Methods, 65:55 (1983) which measures cell viability as a function of cell number. Thus, the effect of fluorescent dyes on both cell viability and cell number can be measured simultaneously. The assay is based on the conversion of colorless tetrazolium salts by mitochrondrial dehydrogenase enzymes to a detectable colored product. A favored tetrazolium salt is MTT, or (3-(4,5- dimethylthylthiazol-2-yl)-2,5- diphenyl tetrazolium bromide).
(§2) Cell growth and viability was determined using the MTT assay as described by Mosmann, T., above. […] Each of the above cell lines was tested, and the results are shown in Figures 1, and 2 for 520C9 and 3G8 respectively. For both cell lines the assay was linear at least up to 10⁴ cells/well.
(§3) Next, the same cell lines were labeled in the presence or absence of either rhodamine 123 or hydroethidine, and subsequently cultured for three days during which cell number was measured. Cells were labeled in the presence of 0.5 µg/ml rhodamine 123 plus 10 µM verapamil, or 5 or 10 µg/ml hydroethidine. […]

[2] = system: 3G8 cells; assay: as above; format: cell-based, murine; conditions: hydroethidine at 10 µg/ml, Figure 2
Source text: as §1, §2, §3

## CCN1c2cc(N)ccc2-c2ccc(N)cc2C1c1ccccc1 (stereo not drawn) [hydroethidine]
[1]
  growth rate and cell numbers of 520C9 cells compared to cells grown in medium lacking the compounds: virtually identical
[2]; labeled 20 minutes, cultured three days
  inhibition of 3G8 growth: does inhibit
[2]
  start of inhibition of 3G8 growth: about 24 hours
